Results on 1 compound are retold here after US20230390226A1 (PaxMedica, Inc., priority 2021, published 2023).

Holding throughout (type): in vivo, mouse
The test system of experiment [1] is B6.129P2-Fmr1tm1Cgr/J transgenic (TG) mice. The experiment is described as follows: Light/dark preference test (LDT), anxiety-like behavior. As for the experimental part: • 1. N=6 mice per group. • 2. All behavioral testing included a group of untreated wild type controls. • 3. Dosing for the various groups were as follows: • a. […] Group 2: IP saline, […], administered weekly to animals beginning at 9 weeks of age and continuing for four weeks (i.e. given at Age Weeks 9, 10, 11 and 12). • c. […] Behavioral tests for all groups (Groups 1-5) began the following day after the last day of IN dosing (Weeks 13-14 of age). • 5. Blood samples (PK testing) were collected from all mice at the end of 12 Weeks of age, just prior to starting the behavioral tests in Week 13. • 6. Brain tissue (for biochemistry testing) was harvested from all mice upon sacrifice at the conclusion of all behavioral testing at the end of 13-14 Weeks of age.
Male B6.129P2-Fmr1tm1Cgr/J TG mice were purchased from Jackson Laboratories, Bar Harbor, Maine. These mice were of approximately 8(+1) weeks of age. Mice were maintained in group cages (6 mice per cage based on treatment group) in a controlled environment (temperature: 21.5±4.5° C./relative humidity: 35-55%) under a standard 12-hour light/12-hour dark lighting cycle (lights on at 06:00). Mice accommodated to the research facility for the remainder of the week. Dosing began on the following Monday. Body weights of all mice were recorded for health monitoring purposes.
Dosing was carried out over the course of 28 days as instructed by the study sponsor. • 1. Prior to the beginning of the light/dark test, a dark box (red transparent enclosure with an opening for the mouse to enter) is placed in the SmartCage™ • 2. An individual mouse is placed in the open/non-dark box side (“Light Zone”), with its head facing away from the dark box. • 3. The mouse is then allowed to freely explore the SmartCage™ and enter the dark box “Dark Zone” at its own discretion over a 10-minute span. • 4. Anxiety-like behavior is assessed based on the SmartCage™ monitoring of time spent in the Light Zone, the number of Light Zone entries, and % Time Spent in the Light Zone. • 5. […]

For experiment [2] the test system is unchanged. Kind of experiment: Locomotor activity test (SmartCage). As for the experimental part:
(§1) • 1. N=6 mice per group. • 2. All behavioral testing included a group of untreated wild type controls. • 3. Dosing for the various groups were as follows: • a. […] Group 2: IP saline, […], administered weekly to animals beginning at 9 weeks of age and continuing for four weeks (i.e. given at Age Weeks 9, 10, 11 and 12). • c. […] Behavioral tests for all groups (Groups 1-5) began the following day after the last day of IN dosing (Weeks 13-14 of age). • 5. Blood samples (for PK testing) were collected from all mice at the end of Week 12 of age, just prior to starting the behavioral tests in Week 13 of age. • 6. Brain tissue (for biochemistry testing) was harvested from all mice upon sacrifice at the conclusion of all behavioral testing at the end of Week 13-14 of age.
Male B6.129P2-Fmr1tm1Cgr/J TG (TG) mice were purchased from Jackson Laboratories, Bar Harbor, Maine. These mice were of approximately 8(+1) weeks of age. […] Body weights of all mice were recorded for health monitoring purposes.
Dosing was carried out over the course of 28 days as instructed by the study Sponsor. […] Day 1 to Day 2: Locomotor Activity recording is assessed using the SmartCage™ • 2. […]
Each mouse was placed in a clean plastic, transparent home cage within the SmartCage™. […] Active Time, Travel Distance, and Rearing Activity were assessed for each mouse. Data analyzed based on treatment group.

For experiment [3] the test system is unchanged. The experiment is described as follows: Step through passive avoidance test, learning and memory. The procedure: as §1, with “type (WT)” for “type”
Male B6.129P2-Fmr1tm1Cgr/J TG (TG) mice were purchased from Jackson Laboratories, Bar Harbor, Maine. These mice were of approximately 8 (±1) weeks of age. Mice were maintained in group cages (6 mice per cage based on treatment group) in a controlled environment (temperature: 21.5±4.5° C./relative humidity: 35-55%) under a standard 12 hour light/12 hour dark lighting cycle (lights on at 06:00). Mice accommodated to the research facility for the remainder of the week. Dosing began on the following Monday. Body weights of all mice were recorded for health monitoring purposes.
Dosing was carried out over the course of 28 days as instructed by the study Sponsor. The fifth and final behavioral test, the Step Through (ST) Passive Avoidance Test, was performed over two days (days 38 and 39) with the first day as a Training Day and the second day as a Test Day. Passive avoidance is fear-motivated tests classically used to assess short-term or long-term memory on rodents. […] The mouse is then allowed to freely explore the SmartCage™ and enter the dark box “Dark Zone” at its own discretion; dark box entry latency is automatically recorded. • 4. […] The mouse may freely explore the SmartCage™ for 5 minutes, and avoidance of the Dark Box due to contextual-fear association is assessed. • 8. […]

SMILES strings stand for the structures.

On to `Cc1ccc(C(=O)Nc2ccc(S(=O)(=O)O)c3cc(S(=O)(=O)O)cc(S(=O)(=O)O)c23)cc1NC(=O)c1cccc(NC(=O)Nc2cccc(C(=O)Nc3cc(C(=O)Nc4ccc(S(=O)(=O)O)c5cc(S(=O)(=O)O)cc(S(=O)(=O)O)c45)ccc3C)c2)c1` [suramin, 1,3,5-Naphthalenetrisulfonic acid, 8,8′-[carbonylbis[imino-3,1-phenylenecarbonylimino(4-methyl-3,1-phenylene)carbonylimino]]bis-], for which the “percentage of time spent in the light zone” value in experiment [1] (IN weekly for 4 weeks) is “higher percentage of time spent in the Light Zone”; in experiment [3] (test day, IN groups), “greater than 70%”. In addition, in experiment [1] (IN weekly for 4 weeks, 10-minute test), the “total time spent in the light zone” value was around 6.5 min. Besides, the “dark zone entry latency” value in experiment [1] (all IN groups (daily, every other day, weekly)) was 60 to 65 s; in experiment [3] (Test Day, IP 20 mg/kg weekly), “shortest latency”. For the same compound, the active time entry in experiment [2] (IN daily, weekly and every 2 days, ~24 h recording) is given as “greater activity compared to the WT control group”. Moreover, the rearing count result in experiment [2] (IN every 2 days) is listed as “comparable to the WT control group”. Moreover, the “total light zone time” value in experiment [3] (test day, IP 20 mg/kg weekly) is reported as “lower total time”.
